Reference: US4389394A, “Methods for reducing dental caries” (Talres Development (N.A.) N.V., priority 1978, dated 1983)
Entries after “also recorded” stand apart in the source; their conditions may differ.

Assays:
[1] = Acute oral toxicity in the rat; settings: in vivo, per os, maximum dose practically possible
From the text: For example, in the rat the compound no.

S. mutans [2] = assay: (D) Further tests on adherence to teeth; type: cell-based, Streptococcus mutans; settings: glass slide; 0.055 molar; Duncan procedure
Experimental: (§1) The extent to which cells of S. mutans adhere to teeth was investigated using a recognized model system. Solutions of the same substances as in (A) were made up, and the degree of deposition of suspended cells on to glass was studied using a "Magiscan" image analyser (Talyer et al., 1978 Praktischen Metallographie, Sonderbande 8: 433-442).
While recording the pH during the tests of (C), the adherence was monitored in the same way as in (B). The percentage coverage of a glass slide was determined at 0.5 and 4 hours for each solution, and the results treated by the Duncan procedure.

S. mutans [3] = assay: Scanning electron microscopy of glass with adherent cells; type: cell-based, Streptococcus mutans; settings: sucrose medium; qualitative
[4] = test system: Streptococcus mutans NCTC 10832; assay: (A) Effect on reduction of pH by Streptococcus mutans; type: cell-based; settings: for pH: no amino acids, 0.05 molar each saccharide, 37° C
From the text: Mouth flora such as S. mutans cause dental caries by producing acid which erodes the tooth enamel. The cells exude a polysaccharide which firmly adheres them to the tooth surfaces as plaque, thus enhancing the local erosion by the acid. The effect of chlorodeoxysucroses on acid production by S. mutans in sucrose solutions was studied in comparison with the effect produced by xylitol, an agent proposed as a caries preventative.
(§2) Plain aqueous solutions were used and also solutions containing amino acids (protein hydrolysate) 1% w/v to approximate the buffering effect of natural saliva. Control experiments were effected using no saccharide in order to illustrate the endogenous metabolism of the organism. Each experiment was quadruplicated and was run at 37° C. The pH was measured at 0, 0.5, 1, 1.5,2, 3 and 4 hours.

[5] = test system: germ-free Liverpool hooded rats inoculated orally with Streptococcus mutans NCT 10823; assay: (E) Gnotobiotic rat caries model; type: in vivo; settings: 21 days; diet 33% skim milk, 67% carbohydrate; S. mutans NCT 10823; statement in words
Experimental: Studies were carried out on the effect of chlorodeoxysucroses on cariogenic food products, using 4,1',6'-trichloro-4,1',6'-trideoxygalactosucrose as the chlorodeoxysucrose. Cariogenicity was examined using the gnotobiotic rat caries model (see for example Drucker and Green, Arch. Oral Biol. Vol 23 pp 183-187).
The experiment involved the use of germ-free Liverpool hooded rats inoculated orally with Streptococcus mutans NCT 10823 (a caries-producing organism). The rats were fed a diet consisting essentially of 33% by weight skim milk and 67% by weight carbohydrate. The carbohydrate consisted of (i) starch, or (ii) sucrose, or (iii) starch together with sufficient of the chlorodeoxysucrose to give a sweetness as perceived by a human of the same order as that of the sucrose. After 21 days, the rats were sacrificed and the lower jaw lesions were counted to give a caries score for each rat (see Konig, Marthaler and Muhlemann, Dt. Zahn-Mund-u. Kieferheilk Vol. 29, 99-127).

S. mutans [6] = assay: (B) Adherence to teeth: deposition of suspended cells on to glass (Magiscan image analyser); type: cell-based, Streptococcus mutans
From the text: as §1
Each reading is the mean of 40 determinations.

[7] = West German Offenlegungsschrift No. 2700036; cited from earlier work
S. mutans [8] = assay: (C) Further tests on pH reduction; type: cell-based, Streptococcus mutans; settings: for effect on acid production / pH: statement in words, pooled 2, 3 and 4 hours
Experimental: as §2
Twelve sets of tests were carried out in the same way as described above at (A) but using solutions which were 0.055 molar in the respective chlorodeoxy derivative.
Solutions of the following were employed:
(i) Saline, negative control for endogenous metabolism
(ii) Sucrose, positive control
(iii) 6,1',6'-trichloro-6,1',6'-trideoxysucrose, compound no. 7.
(iv) Compound no. 7 plus sucrose.
(v) 1',6'-dichloro-1',6'-dideoxysucrose, compound no. 4
(vi) Compound no. 4 plus sucrose
(vii) 4,1',6'-trichloro-4,1',6'-trideoxygalactosucrose, Compound no. 5.
(viii) Compound no. 5 plus sucrose
(ix) 4,6,6'-trichloro-4,6,6'-trideoxygalactosucrose, Compound no. 6
(x) Compound no. 6 plus sucrose
(xi) 1'-chloro-1'-deoxysucrose, compound no. 1
(xii) Compound no. 1 plus sucrose
The acid production was monitored as before.

[9] = no amino acid, mean of 40 determinations

SMILES: OC[C@H]1O[C@H](O[C@]2(CCl)O[C@H](CCl)[C@@H](O)[C@@H]2O)[C@H](O)[C@@H](O)[C@H]1Cl [Compound no. 5, 4-chloro-4-deoxy-α-D-galactopyranosyl-1,6-dichloro-1,6-dideoxy-β-D-fructofuranoside]
- LD50 [1]: > 16000 mg/kg
- % coverage after 0.5 hours (S. mutans [2]): 41.4%
- % coverage after 4 hours (S. mutans [2]): 58.4%
- extracellular coating and size of clumps of adherent cells (S. mutans [3]): found to reduce the extracellular coating and the size of the clumps
- pH ([4]; 0 h): 5.88
- pH ([4]; 0.5 h): 5.67
- pH ([4]; 1.0 h): 5.69
- pH ([4]; 1.5 h): 5.69
- pH ([4]; 2.0 h): 5.61
- pH ([4]; 3.0 h): 5.67
- pH ([4]; 4.0 h): 5.63
- Mean pH ([4]; Duncan Procedure sub-sets, amino acids where named in the solution): 5.64
- effect on acid production ([4]; statement in words, listed as TGS): always had a favourable effect which was statistically significant; also recorded: reduced the amount of acid produced; also recorded: on its own had a favourable effect against the endogenous metabolism of the micro-organism
- cariogenicity (caries score) [5]: appeared to be decreasing the cariogenicity of the starch
- degree of adhesion (S. mutans [6]; Mann Whitney U-test, statement in words, listed as TGS): reduces the degree of adhesion significantly; also recorded: the reduction is greater than that of xylitol
- Coverage (%) after 0.5 h (S. mutans [6]; [9]): 30.42%
- Coverage (%) after 4.0 h (S. mutans [6]; [9]): 64.81%
- sweetness relative to sucrose [7]: many times sweeter than sucrose
- Mean pH (S. mutans [8]; 0.055 molar chlorodeoxy derivative, pooled data for 2, 3 and 4 hours, Duncan procedure): 6.82
- effect on acid production / pH (S. mutans [8]): give a better result than the negative control, saline
- effect on acid production / pH (S. mutans [8]; listed as (vii)): one pH unit less than that of solution (ii)
- effect on acid production / pH (S. mutans [8]; listed as no. 5): especially effective
